For assay [1], the system named is recombinant luciferase-encoding virions (NL4-3 backbone) pseudotyped with macrophage-tropic ADA envelope. Nature of the assay: Infection of primary human MDM with luciferase-encoding virions, ADA envelope. Particulars: 48 h. It is filed as cell-based, HIV-1. The text has this: (§1) Fully infectious viral entities were generated by calcium phosphate transfection of 293T with pNL4-3 vector (T-tropic virions) as described below. Recombinant luciferase-encoding virus particles pseudotyped with the appropriate Env proteins have been used in our series of investigations. […] This test is based on the molecular construct pNL4-3-Luc-E-R+, a vector that carries the gene for firefly luciferase inserted into the nef gene of the pNL4-3 provirus and contains also a frameshift at the 5′ end of env (nt 5950) that prevents expression of the envelope glycoproteins. Progeny viruses were generated by cotransfecting 293T cells with pNL4-3-Luc-E-R+ and a plasmid DNA encoding for the appropriate envelope glycoproteins (T or macrophage-tropic). Briefly, a typical transfection experiment was performed as follow. In brief, 293T cells were plated 24 h before transfection at a concentration of 5×10^5 cells per 3 ml of DMEM into each well of 6-well plates. All solutions were brought to room temperature before use. Immediately before transfection, DNA was added to 25 μl of 2.5M CaCl2 and the volume was completed to 250 μl with distilled water. This solution was then added drop by drop to 250 μl of 2×HBS solution (280 mM NaCl, 50 mM HEPES, 1.5 mM Na2HPO4, pH 7.05) and the resulting mixture was stored at room temperature for 5 min. This DNA-HBS mixture was finally added drop by drop to plated 293T cells before incubation at 37° C. under a 5% CO2atmosphere. At 16 h after transfection, cells were washed twice with 3 ml of PBS and were incubated for an additional 24 h with 3 ml of DMEM supplemented with 10% FBS. Virion-containing supernatants were filtered through a 0.45-μm cellulose acetate membrane (Millipore, Mass.), aliquoted in 200 μl fractions, and were finally frozen at −85° C. until needed. Virus stocks were normalized for virion content using a commercial assay for the viral major core protein p24 (Organon Teknika, Durham, N.C.).
(§2) In brief, 100 μl of cell-free supernatant were discarded from each well and 25 μl of cell culture lysis buffer 5×(125 mM Tris phosphate [pH 7.8], 10 mM DTT, 5% Triton X-100, and 50% glycerol) were added to the wells before incubation at room temperature for 30 min. An aliquot of cell lysate (20 μl) was mixed with 100 μl luciferase assay buffer (20 mM tricine, 1.07 mM (MgCO3)4. Mg(OH)2.5H2O, 2.67 mM MgSO4, 0.1 mM EDTA, 270 μM coenzyme A, 470 μM luciferin, 530 μM ATP, and 33.3 mM DTT). Luciferase activity was monitored using a microplate luminometer (MLX; Dynex Technologies, Chantilly, Va.).

Assay [2] has as its system recombinant luciferase-encoding virions (NL4-3 backbone) pseudotyped with T-tropic HXB-2D envelope. Kind of assay: Infection of Jurkat cells with luciferase-encoding virions, HXB-2D envelope. It is filed as cell-based, HIV-1. The note with it: 72 h.
Source text: as §1, §2
We attempted to define any putative interaction (additive, synergistic or antagonistic) between bpV compounds and currently approved anti-HIV-1 agents (AZT/Zidovudine, 3TC/Epivir/Lamivudine). […]

Consider K2[VO(O2)2pic].H2O [bpV[pic]], for which the “HIV-1 infection (luciferase activity)” value was “inhibits HIV-1 infection” in assay [1] (MDM, 10 μM alone, 15 min pretreatment) and “inhibits HIV-1 infection” in assay [2] (bpV compound alone (2.5, 5, 10 μM)). Besides, in assay [1] (MDM, 10 μM bpV[pic] or 5 μM bpV[phen], pretreatment 5 to 120 min), the “anti-HIV-1 efficacy (luciferase activity)” value is on record as “maintained over several pretreatment periods”. Moreover, the “antiviral effect in combination with 3TC” value in assay [1] (MDM, 10 μM bpV[pic] with 0.035 μM 3TC, 15 min pretreatment) was “additive antiviral effect”; in assay [2] (combined with 0.05 μM 3TC), “greater antiviral effect”. Further, the “anti-HIV-1 effect in combination with 3TC” value in assay [1] (MDM, 1, 5 and 10 μM bpV[pic] with 0.07 μM 3TC, 5 min pretreatment) is listed as “dose-dependent additive anti-HIV-1 effect”. For the same substance, in assay [2] (combined with 0.05 μM AZT), the “antiviral effect in combination with AZT” value is listed as “greater antiviral effect”.

Source of the values: US20040131701A1, “Method to treat infectious diseases and/or to enhance antimicrobial efficacy of drugs” (Virocell Inc., priority 2000, published 2004).
